For one assay, the target named is T1, MRGPRX2 (Homo sapiens, UniProt Q96LB1).
T1 sequence (Q96LB1 1-330): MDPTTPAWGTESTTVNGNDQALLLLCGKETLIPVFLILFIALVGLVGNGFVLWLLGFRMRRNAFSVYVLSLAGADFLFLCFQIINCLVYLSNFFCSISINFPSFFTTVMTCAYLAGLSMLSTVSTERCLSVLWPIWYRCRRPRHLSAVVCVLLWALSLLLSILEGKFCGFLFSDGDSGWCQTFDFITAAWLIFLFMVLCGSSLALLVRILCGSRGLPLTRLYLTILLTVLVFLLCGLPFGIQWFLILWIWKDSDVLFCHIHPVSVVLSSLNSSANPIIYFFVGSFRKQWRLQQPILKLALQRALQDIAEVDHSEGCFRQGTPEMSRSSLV
Kind of assay: FcεR1/MRGPRX2 dual-stimulation β-hexosaminidase release in freshly isolated human skin mast cells. Also on record: human mast cells expressing endogenous MRGPRX2; endogenous in cells; […]. The settings on record: Substance P plus anti-IgE (10 μg/mL); n = 3 donors. In kind it is cell-based. The method, then:
Tissue was processed, removing adipose and cutting into small segments. Epidermis was removed after incubation with dispase II (2 mg/mL; Sigma-Aldrich) [100 mL/50-cm^2 tissue, base buffer; Dulbecco’s Phosphate-buffered Saline (D-PBS) (Gibco, supplemented with Ca^2+/Mg^2+), amphotericin B (2.5 μg/mL), penicillin (100 units/mL)/streptomycin (100 μg/mL) (Sigma-Aldrich)] for 37°C for 2–4 h followed by 4°C overnight. The remaining dermis was homogenized into a uniform mass and digested with an enzyme cocktail [collagenase IV (10 mg/mL; Gibco), hyaluronidase I-S (5 mg/mL; Sigma), DNAse I (10 μg/ml; Roche)] in base buffer (supplemented with 10% FBS) in a shaking incubator at 37°C for 90 min. […]
For human primary skin mast cell degranulation experiments, both β-hexosaminidase and tryptase were measured. […] Plates were centrifuged, with supernatants collected and lysates generated [cell pellets lysed in 0.1% Tx100 (Sigma), in assay buffer], and then stored at −80°C for later quantification. β-Hexosaminidase activity assay was performed as already described. For tryptase quantification: The amount of total tryptase (α and β tryptase) was quantified using the ImmunoCap Tryptase Test ran on either a Phadia 100 or 250 Immunoassay Analyzer as per the manufacturer’s protocol. […]

The subject of assay [1] is human MRGPRX2 knock-in mice. Kind of assay: Cpd 48/80-induced itch (scratching) behavioral model. Particulars: 3 mg/kg PO, Cpd 48/80 intradermal 3 h post-dose, scratching over 30 min. In kind it is in vivo, mouse. The source says:
The generation and initial characterization of human MRGPRX2 knock-in (KI) mice has been previously reported ([15]). All experimental protocols were approved by the Animal Care and Use Committee at the Johns Hopkins University School of Medicine and studies conducted according to GSK’s Policy on the Care, Welfare and Treatment of Animals. All mice used for this study were 2- to 4-month old males and females (20–30 g) and randomized on body weight and sex using three groups of 18 animals per group.
On the day of the experiment, animals were allowed to acclimatize to the test chamber for 10 min prior to injection. Mice received a single PO dose of Compound B (or vehicle) as a suspension in 1% methylcellulose at a dose level of 3 mg/kg (dose volume 10 mL/kg). Scratching behavior was monitored over 30 min following a single intra-dermal injection of 10 μL of Cpd 48/80 (10 μg/mL) or vehicle (saline) at 3 h post-dose of the antagonist. A bout of scratching was defined as a hindpaw directed continuous scratching movement at the injection site. The scratching behavior scorer was blinded to treatment. […]
Figure 6 Oral treatment with the potent and selective MRGPRX2 antagonist, Compound B (3 mg/kg), blocks Cpd 48/80–induced itch response using human MRGPRX2 knock-in mice. […] Average ± SD blood-free concentration of antagonist measured at end of “itch” observation period was 19 ± 16 nM Compound B.

For assay [2], the system named is wild-type mice (C57BL6J strain). Nature of the assay: Cpd 48/80-induced itch behavioral study in wild-type mice. In kind it is in vivo, mouse. The protocol: On the day of the experiment, animals were allowed to acclimatize to the test chamber for 10 min prior to injection. Mice received a single PO dose of Compound B (or vehicle) as a suspension in 1% methylcellulose at a dose level of 3 mg/kg (dose volume 10 mL/kg). Scratching behavior was monitored over 30 min following a single intra-dermal injection of 10 μL of Cpd 48/80 (10 μg/mL) or vehicle (saline) at 3 h post-dose of the antagonist. A bout of scratching was defined as a hindpaw directed continuous scratching movement at the injection site. The scratching behavior scorer was blinded to treatment.
Supplemental Figure 3: Oral treatment with the potent and selective human MRGPRX2 […]
type mice. The itch behavioral study for wild-type mice (C57BL6J strain) was performed the same way as descripted in the Methods section as for human MRGPRX2 knock-in mice. Compound 48/80 […]
control (18.4 +/- 3.8, n=7) mice (mean +/- SEM; *P < 0.05, Student's t test). As expected, no effect on the scratching behavior (39.8 +/- 12.6, n=6; P=0.795) was observed by oral administration of Compound B to the Compound 48/80 treated mice. […]

“Also recorded” adds a separate entry of the source.

As to `C[C@@H](C(=O)Nc1cnc(Oc2ccc(F)cc2F)cn1)N1CCC(F)(F)[C@@H](c2cc[n+]([O-])cc2)C1` [Compound B], on MRGPRX2, the “Effect on MRGPRX2-dependent augmentation of FcεR1/MRGPRX2 dual-stimulation β-hexosaminidase release” value is listed as “selectively inhibits”. In assay [1], the “Effect on Cpd 48/80-induced itch response” value is “significant blockade; also recorded: completely block”. In addition, in assay [2] (3 mg/kg oral, wild-type mice), the “Effect on Cpd 48/80-induced scratching behavior” value is recorded as “did not block; also recorded: no effect was observed”. The Scratching counts in assay [2] (Compound B 3 mg/kg oral in Compound 48/80 treated wild-type mice, mean +/- SEM, n=6) is reported as 39.8 +/- 12.6.

The record behind these values is PMC11527646, “Pharmacological blockade of the mast cell MRGPRX2 receptor supports investigation of its relevance in skin disorders” (Frontiers in Immunology, 2024).
